Laboratory results reported in patent publication US7291618B2, “Therapeutic compounds” (Pfizer Inc, priority 2004, dated 2007).

Key:
DPP-IV = biological target: T1, DPP-IV (Homo sapiens, UniProt P27487); assay: In vitro Assay for DPP-IV Inhibition; assay type: biochemical; conditions: read-out: IC50 against DPP-IV
T1 construct: purchased MP Biomedicals, Livermore, Calif
Method: 150 μL of an enzyme-substrate solution is pipetted into microtiter wells of a polystyrene 96-well plate, and maintained at 4° C. The enzyme-substrate solution comprises 50 μM Gly-Pro-4-methoxy-β-naphthylamide hydrochloride in 50 mM Tris assay buffer pH 7.3 containing 0.1M sodium chloride, 0.1% (v/v) Triton and 50 μU/mL DPP-IV (MP Biomedicals, Livermore, Calif.; DPP-IV 5 mU/mL stock). 5 μL per well of the compound of formula (I) is added, bringing the final concentrations of the formula (I) compound to between 3 μM and 10 nM per well.
Controls. Enzyme is omitted from four (4) wells, as a reagent blank. 5 μL of 3 mM Diprotin A (Bachem Bioscience, Inc.; King of Prussia, Pa.) is added to four wells as a positive quality control, providing a final Diprotin A concentration of 100 μM. To measure total enzyme activity (i.e., a negative control), without the influence of any compounds of formula (I), 5 μL of distilled water is added to four wells.
The entire assay is incubated overnight (between 14 and 18 hours) at 37° C. […]

[1] = rat, in vivo, po, 5 mg/kg
Method: (§1) In this experiment, male Sprague-Dawley rats (200-250 grams) implanted with jugular vein cannulas (JVC) were obtained from Charles River Laboratories. Each compound was administered to two rats or by oral gavage. The oral dose was administered as a solution in 0.5% methycellulose with a dose volume of 10 mL/kg. The amount of each compound administered was 5 mg/kg body weight. Blood samples (0.25 mL) were collected at multiple time points from 0-24 hours and placed into tubes containing lithium heparin (Becton Dickinson, Microtainer®). The blood samples were then centrifuged at 12000 rpm for 10 minutes). Plasma aliquots were taken for determination of compound plasma concentrations (pharmacokinetic analysis). The plasma samples were frozen at −70° C. until analysis.
(§2) The rat plasma samples were analyzed for compound concentrations by LC/MS/MS (Applied Biosystems API 4000 mass spectrometer). In brief, compound standard curves were prepared in control rat plasma with a dynamic range of 1.0-2000 ng/mL. Aliquots (0.02 mL) of both standards and samples Were placed into Marsh™ tubes in a 96-well block. Proteins were precipitated by addition of 0.1 mL acetonitrile containing 0.1 μg/mL of internal standard. The 96-well blocks were vortexed and then centrifuged at 3000 rpm for 5 minutes. The resulting supernatant was removed and placed into a new 96-well block and taken to dryness at 50° C. under a nitrogen stream. Residues were reconstituted in mobile phase (60% 5 mM ammonium acetate and 40% acetonitrile). Aliquots (0.01 mL) were then injected onto the LC/MS/MS for analysis.

[2] = Comparative Rat Pharmacokinetics Experiments (plasma concentrations over time after oral gavage); conditions: male, Sprague-Dawley, 5 mg/kg
Method: as §1, §2

T1 sequence (P27487 whole entry, species assumed): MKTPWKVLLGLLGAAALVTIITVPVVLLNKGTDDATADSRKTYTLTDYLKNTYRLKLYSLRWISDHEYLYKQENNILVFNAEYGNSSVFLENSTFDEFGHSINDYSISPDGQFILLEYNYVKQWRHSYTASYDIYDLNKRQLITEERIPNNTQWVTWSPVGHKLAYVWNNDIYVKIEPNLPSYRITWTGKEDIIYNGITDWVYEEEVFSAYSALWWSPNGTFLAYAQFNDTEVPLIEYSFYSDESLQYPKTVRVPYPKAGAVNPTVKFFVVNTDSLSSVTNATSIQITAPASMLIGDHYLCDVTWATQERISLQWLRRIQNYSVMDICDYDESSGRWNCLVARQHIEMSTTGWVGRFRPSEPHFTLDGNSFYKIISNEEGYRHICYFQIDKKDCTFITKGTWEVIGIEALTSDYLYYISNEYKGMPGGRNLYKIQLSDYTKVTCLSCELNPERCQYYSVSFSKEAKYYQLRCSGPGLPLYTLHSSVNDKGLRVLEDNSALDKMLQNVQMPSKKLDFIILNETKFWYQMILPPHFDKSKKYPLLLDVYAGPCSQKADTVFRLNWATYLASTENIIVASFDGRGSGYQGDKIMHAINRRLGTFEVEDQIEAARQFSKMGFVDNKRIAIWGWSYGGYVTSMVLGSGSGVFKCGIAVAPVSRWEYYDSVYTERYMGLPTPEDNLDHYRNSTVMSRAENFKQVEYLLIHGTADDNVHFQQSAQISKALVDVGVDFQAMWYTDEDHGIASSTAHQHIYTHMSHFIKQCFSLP

IC50 (DPP-IV) | concentration at 0.25 h [2] | concentration at 0.5 h [2] | concentration at 0.75 h [2] | concentration at 1 h [2] | concentration at 2 h [2] | concentration at 4 h [2] | concentration at 6 h [2] | concentration at 8 h [2] | Structure (SMILES) | plasma concentrations achieved and maintained, compared with the comparator compound [1]
3.5 nM | – | – | – | – | – | – | – | – | N#Cc1nccnc1N1CCN([C@@H]2CN[C@H](C(=O)N3C[C@@H](F)[C@@H](F)C3)C2)CC1 (relative stereo) [Example 10, ((2S,4S)-4-(4-(3-Cyanopyrazin-2-yl)piperazin-1-yl)pyrrolidin-2-yl)-((3R*,4S*)-3,4-difluoropyrrolidin-1-yl)-methanone] | –
– | 1410 ng/mL | 1320 ng/mL | 979 ng/mL | 768 ng/mL | 289 ng/mL | 97.8 ng/mL | 49.3 ng/mL | 32.8 ng/mL | O=C([C@@H]1C[C@H](N2CCN(c3ncccn3)CC2)CN1)N1CCC(F)(F)C1 [CPD 113, (3,3-Difluoropyrrolidin-1-yl)-((2S,4S)-4-(4-(pyrimidin-2-yl)piperazin-1-yl)pyrrolidin-2-yl)-methanone] | significantly higher plasma concentrations
